# Assay results taken from patent US20180312493A1, “Antibiotic Compounds, Pharmaceutical Formulations Thereof And Methods And Uses Therefor” (Simon Fraser University, priority 2015, published 2018).
# Legend:
# [1] = target: T1, MRSA Pyk (Staphylococcus aureus, UniProt Q6GG09); assay: MRSA pyruvate kinase (PK) activity, continuous LDH-coupled assay; assay type: biochemical, methicillin resistant S. aureus (MRSA252)
# T1 construct: made in house; host or cells: E. coli BL-21 (DE3)
# Outline: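 Activity monitored continuously as absorbance change at 340 nm from NADH oxidation via coupled lactate dehydrogenase, reactions started with 15 nM recombinant His-tagged PK (MRSA or human isoform) and run at 30° C for up to 5 min. Ki derived by varying inhibitor (0-400 nM) and PEP (2-20 mM) at 2 mM ADP; IC50 by four-parameter fitting.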
# [2] = test system: S. aureus (ATCC29213); assay: In vitro susceptibility, broth microdilution (MIC); assay type: cell-based; conditions: Staphylococcus aureus; S. aureus ATCC29213; 18-24 h, 37 C; read-out: Antimicrobial activity (MIC) S. aureus ATCC29213
# Outline: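 CLSI 2-fold serial broth microdilution; K. pneumoniae C238 grown in L-broth, S. aureus ATCC 29213 in Mueller Hinton broth, plates incubated 18–24 h at 37 °C. MIC taken as lowest concentration giving complete growth inhibition by OD600 versus compound-free wells, background-subtracted.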
# T1 sequence (Q6GG09 whole entry): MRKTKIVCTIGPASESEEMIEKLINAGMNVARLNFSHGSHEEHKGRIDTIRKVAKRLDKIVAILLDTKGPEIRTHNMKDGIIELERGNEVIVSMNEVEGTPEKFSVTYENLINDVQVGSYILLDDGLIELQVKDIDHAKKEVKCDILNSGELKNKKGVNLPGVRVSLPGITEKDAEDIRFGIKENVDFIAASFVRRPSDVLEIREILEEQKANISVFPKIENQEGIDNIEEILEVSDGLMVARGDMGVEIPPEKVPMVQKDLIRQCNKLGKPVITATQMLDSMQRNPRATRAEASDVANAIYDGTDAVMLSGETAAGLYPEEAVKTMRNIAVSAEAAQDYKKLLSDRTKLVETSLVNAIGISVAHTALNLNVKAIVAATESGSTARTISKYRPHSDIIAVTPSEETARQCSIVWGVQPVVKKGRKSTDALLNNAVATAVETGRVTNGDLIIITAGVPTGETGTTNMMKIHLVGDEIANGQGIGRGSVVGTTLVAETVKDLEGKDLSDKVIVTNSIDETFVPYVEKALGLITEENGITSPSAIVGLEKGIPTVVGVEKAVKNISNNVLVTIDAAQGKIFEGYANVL
SMILES,IC50 [1] [µM],MIC [2] [µg/mL]
"C[N+](C)(C)CCON=C(c1c(-c2cc3cc(Cl)ccc3[nH]2)[nH]c2cc(Br)ccc12)C(F)(F)F (racemic) [Compound 221, 2-(((1-(6-Bromo-5′-chloro-1H,1′H-[2,2′-biindol]-3-yl)-2,2,2-trifluoroethylidene)amino)oxy)-N,N,N-trimethylethan-1-aminium Iodide]",< 0.1,1
"CN(C)CCOC(=O)c1c(/C=C/c2ccc(Cl)cc2)[nH]c2cc(Br)ccc12 [Compound 60, (E)-2-(Dimethylamino)ethyl 6-bromo-2-(4-chlorostyryl)-1H-indole-3-carboxylate]",< 0.1,4
"NCCOc1cc2[nH]c(-c3cc4ccc(Br)cc4[nH]3)cc2cc1Cl [Compound 201, 2-((6′-Bromo-5-chloro-1H,1′H-[2,2′-biindol]-6-yl)oxy)ethan-1-amine]",< 0.1,4
"NCCNC(=O)c1c(-c2cc3cc(Cl)ccc3[nH]2)[nH]c2cc(Br)ccc12 [Compound 206, N-(2-Aminoethyl)-6-bromo-5′-chloro-1H,1′H-[2,2′-biindole]-3-carboxamide]",< 0.1,8
